From the NIST ThermoML archive (doi:10.1016/j.tca.2014.05.033)

Columns and labels:
[1] = Transpiration method
[2] = molar enthalpy of vaporization or sublimation; settings: 298.15 K, DSC

c1ccc(-c2ccccc2-c2ccccc2)cc1 [o-terphenyl]
[1], Liquid
Settings	vapor or sublimation pressure [kPa]
343.5 K	0.00166
345.5 K	0.00195
346.4 K	0.0021
348.4 K	0.0025
349.5 K	0.0027
351.5 K	0.00315
352.5 K	0.00339
355.4 K	0.00427
358.4 K	0.00528
360.4 K	0.0062
361.4 K	0.00658
361.5 K	0.00664
363.2 K	0.00752
365.4 K	0.00888
366.4 K	0.00943
368.4 K	0.01095
369.4 K	0.01187
371.4 K	0.01363
373.3 K	0.01527
374.4 K	0.01677
376.3 K	0.01869
377.4 K	0.02037

Settings	molar enthalpy [kcal/mol]
[2], Crystal	25.3

c1ccc2c(c1)ccc1ccccc12 [phenanthrene]
[1]
Settings	vapor or sublimation pressure [kPa]
306.2 K, Crystal 2	5e-05
309.4 K, Crystal 2	7e-05
313.2 K, Crystal 2	0.00012
316.3 K, Crystal 2	0.00016
319.3 K, Crystal 2	0.00021
322.3 K, Crystal 2	0.00031
325.2 K, Crystal 2	0.00043
328.4 K, Crystal 2	0.00055
329.2 K, Crystal 2	0.00063
330.7 K, Crystal 2	0.00073
334.2 K, Crystal 2	0.00101
337.2 K, Crystal 2	0.00135
340.3 K, Crystal 2	0.00178
343.4 K, Crystal 2	0.00229
346.3 K, Crystal 2	0.00306
349.4 K, Crystal 1	0.00403
352.4 K, Crystal 1	0.00545
355.5 K, Crystal 1	0.00705
356.8 K, Crystal 1	0.0076
358.6 K, Crystal 1	0.00914
359.2 K, Crystal 1	0.00907
362.3 K, Crystal 1	0.01171
365.3 K, Crystal 1	0.01534
368.3 K, Crystal 1	0.01988
370.4 K, Crystal 1	0.02298

Settings	molar enthalpy [kcal/mol]
[2], Crystal 2	22.1
